Measurements reported in PubChem BioAssay (NCI).
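Tested at 5 concentrations; 48 h exposure; 96-well plates; endpoints linearly interpolated, else capped at highest concentration. GI50 is the concentration that inhibits growth by half. TGI: total growth inhibition.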

Legend:
Test in all cases: NCI anticancer screen, dose series, 48 h
[1] = system: 786-0 renal
[2] = system: A498 renal
[3] = system: A549 NSCLC
[4] = system: ACHN renal
[5] = system: BT-549 breast
[6] = system: CAKI-1 renal
[7] = system: CCRF-CEM leukemia
[8] = system: COLO 205 colon
[9] = system: EKVX NSCLC
[10] = system: HCT-116 colon
[11] = system: HCT-15 colon
[12] = system: HOP-62 NSCLC
[13] = system: HOP-92 NSCLC
[14] = system: HS 578T breast
[15] = system: HT29 colon
[16] = system: IGROV1 ovarian
[17] = system: K-562 leukemia
[18] = system: KM12 colon
[19] = system: LOX IMVI melanoma
[20] = system: M14 melanoma
[21] = system: MALME-3M melanoma
[22] = system: MCF7 breast
[23] = system: MDA-MB-231 breast
[24] = system: MDA-MB-435
[25] = system: MOLT-4 leukemia
[26] = system: NCI-H226 lung
[27] = system: NCI-H23 lung
[28] = system: NCI-H460 lung
[29] = system: NCI-H522 lung
[30] = system: NCI/ADR-RES ovarian
[31] = system: OVCAR-3 ovarian
[32] = system: OVCAR-4 ovarian
[33] = system: OVCAR-5 ovarian
[34] = system: OVCAR-8 ovarian
[35] = system: PC-3 prostate
[36] = system: RPMI-8226 leukemia
[37] = system: RXF 393 renal
[38] = system: SF-268 CNS
[39] = system: SF-295 CNS
[40] = system: SF-539 CNS
[41] = system: SK-MEL-2 melanoma
[42] = system: SK-MEL-5 melanoma
[43] = system: SK-OV-3 ovarian
[44] = system: SNB-19 CNS
[45] = system: SNB-75 CNS
[46] = system: SR leukemia
[47] = system: SW-620 colon
[48] = system: T-47D breast
[49] = system: TK-10 renal
[50] = system: U251 CNS
[51] = system: UACC-257 melanoma
[52] = system: UACC-62 melanoma
[53] = system: UO-31 renal
[54] = system: HCC-2998 colon
[55] = system: HL-60(TB) leukemia
[56] = system: SK-MEL-28 melanoma
[57] = system: SN12C renal

## O=C1CCCn2c(nc3ccccc32)N1
[1]
  TGI: > 100 µM
[2]
  TGI: > 100 µM
[3]
  TGI: > 100 µM
[4]
  TGI: > 100 µM
[5]
  TGI: > 100 µM
[6]
  TGI: > 100 µM
[7]
  TGI: > 100 µM
[8]
  TGI: > 100 µM
[9]
  TGI: > 100 µM
[10]
  TGI: > 100 µM
[11]
  TGI: > 100 µM
[12]
  TGI: > 100 µM
[13]
  TGI: > 100 µM
[14]
  TGI: > 100 µM
[15]
  TGI: > 100 µM
[16]
  TGI: > 100 µM
[17]
  TGI: > 100 µM
[18]
  TGI: > 100 µM
[19]
  TGI: > 100 µM
[20]
  TGI: > 100 µM
[21]
  TGI: > 100 µM
[22]
  TGI: > 100 µM
[23]
  TGI: > 100 µM
[24]
  TGI: > 100 µM
[25]
  TGI: > 100 µM
[26]
  TGI: > 100 µM
[27]
  TGI: > 100 µM
[28]
  TGI: > 100 µM
[29]
  TGI: > 100 µM
[30]
  TGI: > 100 µM
[31]
  TGI: > 100 µM
[32]
  TGI: > 100 µM
[33]
  TGI: > 100 µM
[34]
  TGI: > 100 µM
[35]
  TGI: > 100 µM
[36]
  TGI: > 100 µM
[37]
  TGI: > 100 µM
[38]
  TGI: > 100 µM
[39]
  TGI: > 100 µM
[40]
  TGI: > 100 µM
[41]
  TGI: > 100 µM
[42]
  TGI: > 100 µM
[43]
  TGI: > 100 µM
[44]
  TGI: > 100 µM
[45]
  TGI: > 100 µM
[46]
  TGI: > 100 µM
[47]
  TGI: > 100 µM
[48]
  TGI: > 100 µM
[49]
  TGI: > 100 µM
[50]
  TGI: > 100 µM
[51]
  TGI: > 100 µM
[52]
  TGI: > 100 µM
[53]
  TGI: > 100 µM

## CCN1CCN(c2cc(C)nc(N(CCCNc3ccnc4cc(Cl)ccc34)Cc3cccs3)n2)CC1
[1]
  GI50: 1.56 µM
  TGI: 3.58 µM
[2]
  GI50: 2.41 µM
  TGI: 7.13 µM
[3]
  GI50: 3.22 µM
  TGI: 14.4 µM
[4]
  GI50: 3.38 µM
  TGI: 9.22 µM
[5]
  GI50: 1.93 µM
  TGI: 5.04 µM
[7]
  GI50: 2.7 µM
  TGI: 12.5 µM
[8]
  GI50: 1.57 µM
  TGI: 3.32 µM
[9]
  GI50: 3.88 µM
  TGI: 16.6 µM
[54]
  GI50: 1.98 µM
  TGI: 4.58 µM
[10]
  GI50: 1.32 µM
  TGI: 10.4 µM
[11]
  GI50: 1.33 µM
  TGI: 4.51 µM
[55]
  GI50: 2.14 µM
  TGI: 4.15 µM
[12]
  GI50: 2.79 µM
  TGI: 15.2 µM
[13]
  GI50: 1.55 µM
  TGI: 3.79 µM
[14]
  GI50: 2.02 µM
  TGI: 5.02 µM
[15]
  GI50: 1.31 µM
  TGI: 4.33 µM
[16]
  GI50: 2.11 µM
  TGI: 6.58 µM
[17]
  GI50: 0.525 µM
  TGI: 2.29 µM
[18]
  GI50: 2.62 µM
  TGI: 12.7 µM
[19]
  GI50: 1.84 µM
  TGI: 3.59 µM
[20]
  GI50: 1.8 µM
  TGI: 3.51 µM
[21]
  GI50: 2.01 µM
  TGI: 3.7 µM
[22]
  GI50: 2.22 µM
  TGI: 10.3 µM
[23]
  GI50: 1.4 µM
  TGI: 3.56 µM
[24]
  GI50: 1.59 µM
  TGI: 2.95 µM
[25]
  GI50: 1.62 µM
  TGI: 6.12 µM
[26]
  GI50: 8.12 µM
  TGI: 31.5 µM
[27]
  GI50: 3.21 µM
  TGI: 14.3 µM
[28]
  GI50: 2.47 µM
  TGI: 7.84 µM
[29]
  GI50: 1.81 µM
  TGI: 3.81 µM
[30]
  GI50: 2.96 µM
  TGI: 16.8 µM
[31]
  GI50: 1.83 µM
  TGI: 6.03 µM
[32]
  GI50: 2.11 µM
  TGI: 12.7 µM
[33]
  GI50: 3.97 µM
  TGI: 15.3 µM
[34]
  GI50: 3.06 µM
  TGI: 10.9 µM
[35]
  GI50: 3.11 µM
  TGI: 15.9 µM
[36]
  GI50: 1.57 µM
  TGI: 4.82 µM
[37]
  GI50: 1.45 µM
  TGI: 3.17 µM
[38]
  GI50: 2.03 µM
  TGI: 6.62 µM
[39]
  GI50: 1.84 µM
  TGI: 3.73 µM
[40]
  GI50: 1.76 µM
  TGI: 3.33 µM
[41]
  GI50: 1.98 µM
  TGI: 3.92 µM
[56]
  GI50: 1.82 µM
  TGI: 3.39 µM
[42]
  GI50: 1.72 µM
  TGI: 3.11 µM
[43]
  GI50: 3.29 µM
  TGI: 10.5 µM
[57]
  GI50: 3.35 µM
  TGI: 14 µM
[44]
  GI50: 3.88 µM
  TGI: 13.9 µM
[45]
  GI50: 1.5 µM
  TGI: 3.2 µM
[46]
  GI50: 1.29 µM
  TGI: 3.23 µM
[47]
  GI50: 1.59 µM
  TGI: 3.86 µM
[48]
  GI50: 2.29 µM
  TGI: 6.89 µM
[49]
  GI50: 1.82 µM
  TGI: 4.09 µM
[50]
  GI50: 2.22 µM
  TGI: 7.05 µM
[51]
  GI50: 2.1 µM
  TGI: 3.94 µM
[52]
  GI50: 1.93 µM
  TGI: 3.56 µM
[53]
  GI50: 1.33 µM
  TGI: 2.88 µM
